Experimental data taken from patent publication US10869846B2, “N-acetylcysteine amide (NAC amide) in the treatment of diseases and conditions associated with oxidative stress” (SENTIENT LIFESCIENCES, INC., priority 2005, dated 2020).
Values joined by “and” are separate entries in the source; they are usually repeats but may differ in a detail not shown here. Equal entries are not always repeated. Marks after values point to notes of the source that are not given here.

Assays:
Format in all cases: in vivo, rat
Sprague Dawley rats [1] = experiment: Catalase activities in tissues after 6Gy total-body x-ray radiation; settings: 500 mg/kg orally; for Catalase level: individual animals; for Catalase Mean: n = 3
Method: (§1) Animal studies: The irradiation of rats was performed at the Radiation Oncology Department of the Phelps County Regional Medical Center in Rolla, Mo., using a 16 MeV beam generated by a Varian linear accelerator, model Clinac 1800, and in accordance with the standards of humane laboratory animal protocols. A 20×20 or 25×25 cm field was used and output factors were checked once a week. Twelve animals were divided into 4 groups each containing 3 animals (Control, XRT, NAC amide+XRT and NAC+XRT). The radiation (XRT) control received whole body irradiation by 6 Gy of 16 MeV electrons. The NAC amide+XRT group received 500 mg/kg/day NAC amide immediately before irradiation and for three days after until sacrifice. The rats were anesthetized and heparinized blood was collected via cardiopuncture. Following sacrifice, liver, lung, brain and spleen were removed and stored at −70° C. until homogenization.
(§2) All experiments were performed using adult Albino SASCO Sprague Dawley female rats weighing about 250 g, which were purchased from Charles River Laboratories Inc. (Portage, Mich.). Twelve rats were shipped in paper crates (4 in each crate). Rats were delivered with a certificate including serological, bacteriological, pathological parasitological information. They were divided into 4 cages (3 rats in each cage) and kept in a temperature controlled (20° C.) room equipped to maintain a 12 h light-dark cycle. Standard rat chow (Purina rat chow) and tap water were supplied in individual glass bottle and given ad libitum. Water was changed daily. Weights of the animal were taken before giving the NAC amide treatment solution and amount of food eaten and water consumed was not measured because NAC amide was given orally but not in the drinking water or food.
(§3) NAC amide was provided by Novetide Ltd (Haifa Bay, Israel) including certificate of analysis and MSDS (lot #40233-64). NAC amide feeding solution was prepared freshly each day right before the administration by weighing 1.25 g NAC amide solid sample (Type HR-120 electronic balance, A&D Company limited, Japan. S/N: 12202464) and adding into 10 ml PBS solution and put on ice. One ml of this solution was administrated (gavaged) per rat orally by using animal feeding biomedical needles and 3 ml BD Luer-Lok Tip syringes. Rats received one-dose total-body 6 Gy/16 MeV x-ray radiation and 3 rats in each group were held in a covered bucket and received radiation at the same time. Each day at the same time, 500 mg/Kg body weight of NAC amide was administrated to the animals.
In assay solution, k(enzyme activity)= 1/60*ln(A0/A60)*(Total Volume of reaction/volume of sample) A0—Absorbance at 0 second A60—Absorbance at 60 second In sample, K(specific activity)=k/protein concentration.
Enzyme Activity Assays: Catalase (CAT) activity was determined spectrophotometrically and was expressed in kunits/mg protein and kunits/10^6 cells as described by M. Bradford, Anal. Biochem., 72:248-256 (1976).

Sprague Dawley rats [2] = experiment: as above; settings: KIDNEY, 500 mg/kg orally; for Catalase level: individual animals; for Catalase Mean: n = 3
Sprague Dawley rats [3] = experiment: MDA levels in tissues after 6Gy total-body x-ray radiation; settings: for MDA level / MDA Mean: 6Gy total-body x-ray, 500 mg/kg orally; for MDA level: individual animals; for MDA Mean: n = 3; for lung MDA levels: treatment concurrent with irradiation, versus irradiation alone
Method: as §1, §2, §3
For MDA levels, 350 μL tissue homogenate was used to react with 100 μL of 500 ppm BHT solution and 550 μL solution of 10% TCA solution, therefore, the total volume here was 1000 μL. After boiling the whole solution, 500 μL was taken out and react with 500 μL TBA and the total volume here was 1000 μL also.
Glutathione (GSH) and Glutathione Disulfide (GSSG) Determination: Cells or tissue samples were homogenized on ice and derivatized with N-(1-pyrenyl)-maleimide (NPM). The derivatized samples were injected onto a 3 μm C18 column (Column Engineering) in a reverse phase HPLC system with a mobile phase of 35% water, 65% acetonitrile containing 1 mL/L of acetic acid and o-phosphoric acid (R. Winters, et al., Anal. Biochem., 227:14-21 (1995) and H. H. Draper et al., Free Rad. Biol. Med., 15:353-363 (1993)). Malondialdehyde (MDA) determinations were made as described in J. Gutteridge, Anal. Biochem., 69: 518-526 (1975).

[4] = LIVER, listed as AD4, 500 mg/kg

Compound	Catalase Mean (Sprague Dawley rats [1]; LIVER)	Catalase Mean (Sprague Dawley rats [1]; LUNG)	Catalase Mean (Sprague Dawley rats [2])	MDA Mean (Sprague Dawley rats [3]; BRAIN) [nmol/100 mg]	MDA Mean (Sprague Dawley rats [3]; KIDNEY)	MDA Mean (Sprague Dawley rats [3]; LIVER)	MDA Mean (Sprague Dawley rats [3]; LUNG)	lung MDA levels (Sprague Dawley rats [3])	further results
CC(=O)N[C@@H](CS)C(=O)O [NAC, N-acetylcysteine]	71.11*** mU/mg	1.13 mU/mg	4.41 mU/mg	6.15	1.65** nmol/100 mg	5.07**/*** nmol/100 mg	2.52** nmol/100 mg	did not change the MDA levels significantly	Catalase level (Sprague Dawley rats [1]; LIVER, 500 mg/kg): 75.22 mU/mg and 69.09 mU/mg and 69.00 mU/mg; Catalase level (Sprague Dawley rats [1]; LUNG, 500 mg/kg): 2.12 mU/mg and 0.79 mU/mg and 0.48 mU/mg; Catalase level (Sprague Dawley rats [2]; 500 mg/kg): 5.85 mU/mg and 3.02 mU/mg and 4.36 mU/mg; MDA level (Sprague Dawley rats [3]; BRAIN, 500 mg/kg): 6.42 nmol/100 mg and 6.69 nmol/100 mg and 5.33 nmol/100 mg; MDA level (Sprague Dawley rats [3]; KIDNEY, 500 mg/kg): 1.76 nmol/100 mg and 1.78 nmol/100 mg and 1.41 nmol/100 mg; MDA level (Sprague Dawley rats [3]; LIVER, 500 mg/kg): 5.1 nmol/100 mg (2×) and 5.02 nmol/100 mg; MDA level (Sprague Dawley rats [3]; LUNG, 500 mg/kg): 2.58 nmol/100 mg and 2.34 nmol/100 mg and 2.63 nmol/100 mg
N-acetylcysteine amide [NAC amide]	59.28** mU/mg	0.68** mU/mg	3.97** mU/mg	5.48	1.64** nmol/100 mg	4.38** nmol/100 mg	1.53** nmol/100 mg	significantly lowered	Catalase level (Sprague Dawley rats [1]; [4]): 69.63 mU/mg and 57.88 mU/mg and 50.33 mU/mg; Catalase level (Sprague Dawley rats [1]; LUNG, listed as AD4, 500 mg/kg): 1.02 mU/mg and 0.53 mU/mg; Catalase level (Sprague Dawley rats [1]; LUNG, listed as ND4, 500 mg/kg): 0.50 mU/mg; Catalase level (Sprague Dawley rats [2]; listed as AD4, 500 mg/kg): 3.89 mU/mg and 3.46 mU/mg and 4.56 mU/mg; MDA level (Sprague Dawley rats [3]; BRAIN, listed as AD4, 500 mg/kg): 5.79 nmol/100 mg and 5.53 nmol/100 mg and 5.13 nmol/100 mg; MDA level (Sprague Dawley rats [3]; KIDNEY, listed as AD4, 500 mg/kg): 1.96 nmol/100 mg and 1.45 nmol/100 mg; MDA level (Sprague Dawley rats [3]; KIDNEY, listed as AL4, 500 mg/kg): 1.5 nmol/100 mg; MDA level (Sprague Dawley rats [3]; [4]): 4.14 nmol/100 mg and 4.65 nmol/100 mg and 4.36 nmol/100 mg; MDA level (Sprague Dawley rats [3]; LUNG, listed as AD4, 500 mg/kg): 1.72 nmol/100 mg and 1.58 nmol/100 mg and 1.28 nmol/100 mg
